Source: ChEMBL document CHEMBL1201862, “PubChem BioAssay data set” (2004)
Active and inactive are the calls of the source.

Assays:
[1] = biological target: T1, Hexokinase HKDC1 (Homo sapiens, UniProt Q2TB90); test: analog inhibition of human HKDC1 activity – biochemical, set 2, SAR follow-up (AID 588355); assay type: functional
T1 sequence (Q2TB90 whole entry): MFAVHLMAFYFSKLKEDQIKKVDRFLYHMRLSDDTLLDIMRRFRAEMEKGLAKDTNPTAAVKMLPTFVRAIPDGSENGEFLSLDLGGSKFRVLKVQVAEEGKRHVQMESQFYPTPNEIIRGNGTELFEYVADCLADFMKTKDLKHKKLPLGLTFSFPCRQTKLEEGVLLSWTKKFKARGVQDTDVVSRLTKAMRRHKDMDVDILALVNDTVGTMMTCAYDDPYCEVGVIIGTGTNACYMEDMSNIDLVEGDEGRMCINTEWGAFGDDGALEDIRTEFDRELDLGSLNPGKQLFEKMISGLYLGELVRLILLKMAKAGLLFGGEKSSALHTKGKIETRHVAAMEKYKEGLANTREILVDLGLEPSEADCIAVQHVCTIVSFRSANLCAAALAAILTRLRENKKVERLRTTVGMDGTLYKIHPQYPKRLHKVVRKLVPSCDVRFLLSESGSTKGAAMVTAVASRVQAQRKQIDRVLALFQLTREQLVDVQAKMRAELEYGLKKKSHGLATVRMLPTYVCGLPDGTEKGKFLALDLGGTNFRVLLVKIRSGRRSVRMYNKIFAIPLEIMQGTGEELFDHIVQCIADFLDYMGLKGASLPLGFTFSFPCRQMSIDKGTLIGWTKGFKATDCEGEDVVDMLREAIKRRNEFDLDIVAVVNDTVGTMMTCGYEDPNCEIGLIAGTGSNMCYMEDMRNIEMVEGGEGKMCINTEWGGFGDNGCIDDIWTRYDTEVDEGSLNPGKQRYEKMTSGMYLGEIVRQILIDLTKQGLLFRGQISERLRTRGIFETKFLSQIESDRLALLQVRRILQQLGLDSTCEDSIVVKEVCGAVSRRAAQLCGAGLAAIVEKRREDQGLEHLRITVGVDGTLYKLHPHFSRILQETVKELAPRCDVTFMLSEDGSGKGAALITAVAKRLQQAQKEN

[2] = biological target: T2, Hexokinase-1 (Homo sapiens, UniProt P19367); test: hexokinase 1 activity inhibitors, potency – biochemical, set 2, resazurin fluorescence coupled readout, selectivity assay for HKDC1 inhibitor project, SAR follow-up (AID 588356); assay type: functional
T2 sequence (P19367 whole entry): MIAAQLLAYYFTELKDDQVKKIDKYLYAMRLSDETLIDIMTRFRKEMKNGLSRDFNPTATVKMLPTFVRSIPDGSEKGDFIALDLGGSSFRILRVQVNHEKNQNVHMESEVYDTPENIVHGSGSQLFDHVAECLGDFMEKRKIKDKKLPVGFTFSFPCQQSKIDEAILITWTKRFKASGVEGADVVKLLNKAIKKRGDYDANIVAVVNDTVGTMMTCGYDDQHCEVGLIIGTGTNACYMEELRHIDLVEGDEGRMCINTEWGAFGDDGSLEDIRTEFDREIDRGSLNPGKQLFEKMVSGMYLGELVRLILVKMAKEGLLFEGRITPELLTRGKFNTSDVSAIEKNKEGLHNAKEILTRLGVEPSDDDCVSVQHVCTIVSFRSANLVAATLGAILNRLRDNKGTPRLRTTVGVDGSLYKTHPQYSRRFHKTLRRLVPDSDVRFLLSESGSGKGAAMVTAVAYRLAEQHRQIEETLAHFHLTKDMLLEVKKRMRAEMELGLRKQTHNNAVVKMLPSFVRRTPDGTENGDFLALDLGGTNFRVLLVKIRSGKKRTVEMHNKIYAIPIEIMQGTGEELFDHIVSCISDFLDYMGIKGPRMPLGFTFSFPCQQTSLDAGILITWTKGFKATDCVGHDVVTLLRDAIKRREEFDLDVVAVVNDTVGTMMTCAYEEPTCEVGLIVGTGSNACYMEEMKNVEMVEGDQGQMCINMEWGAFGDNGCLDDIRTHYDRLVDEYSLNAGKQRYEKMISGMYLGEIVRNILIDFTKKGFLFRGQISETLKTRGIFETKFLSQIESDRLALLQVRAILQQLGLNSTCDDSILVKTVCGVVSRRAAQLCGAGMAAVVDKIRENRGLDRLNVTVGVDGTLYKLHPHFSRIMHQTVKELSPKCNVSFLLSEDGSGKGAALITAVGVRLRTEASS

[3] = tested on: H4; test: Luminescence Cell-Based Dose Response HTS to Identify Activators of 5'UTR Stem-Loop Driven Prion Protein mRNA Translation in H4 Neuroglioblastoma Cells. [Related pubchem assays: 1829 (Project Summary), 1814 (Primary HTS)]; assay type: functional; details: Homo sapiens
[4] = biological target: Troponin, cardiac muscle (Homo sapiens, UniProt P19429+P45379+P63316); test: Fluorescence-based biochemical high throughput dose response assay for activators of the calcium sensitivity of cardiac Regulated Thin Filaments (RTF). [Related pubchem assays (depositor defined):AID493008, AID493018, AID504382, AID504383]; assay type: protein-complex assay
[5] = Luminescence Cell-Based Dose Response HTS to Identify Activators of Luciferase Translation or Activity in H4 […] Cells. [Related pubchem assays: 1829 (Project Summary), 1814 (Primary HTS)]; assay type: functional
[6] = biological target: T3, Beta-galactosidase (Escherichia coli, UniProt Q8VNN2); test: PubChem AID 485352; assay type: functional
[7] = biological target: Type-1 angiotensin II receptor (Homo sapiens, UniProt P30556); test: antagonism of angiotensin II type 1 receptor – cell-based, uHTS hits, selectivity assay for APJ receptor antagonist project, dose response (AID 463214); assay type: functional;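 also: antagonist potency against angiotensin II stimulated AT1 response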
[8] = tested on: Streptococcus sp. 'group A'; test: Streptococcus pyogenes SK(-)GAS viability under kanamycin – luminescence, BacTiterGlo, confirmation, counter-screen for streptokinase expression inhibitor project, dose response (AID 1900); assay type: functional, organism-based
[9] = biological target: T4, Kappa-type opioid receptor (Homo sapiens, UniProt P41145); assay type: functional
[10] = biological target: T5, Delta-type opioid receptor (Homo sapiens, UniProt P41143); test: HTS Image-Based Screen for Antagonists of the DOR Receptor. [Related pubchem assays (depositor defined):AID1777, AID1785, AID1786, AID2133]; assay type: functional
[11] = biological target: T5, Delta-type opioid receptor; test: HTS Image-Based Screen for Agonists of the DOR Receptor. [Related pubchem assays (depositor defined):AID1777, AID1786, AID2133]; assay type: functional
[12] = tested on: Streptococcus; test: GAS UMAA2166 growth inhibition – luminescence, BacTiterGlo, counter-screen for streptokinase expression inhibitor project, dose response (AID 1915); assay type: functional, organism-based;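 also: potency for reduction of bacterial viability or growth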
[13] = biological target: T3, Beta-galactosidase; test: detection-enzyme interference by beta-gal modulators – biochemical, E. coli enzyme, set 3, artefact control for CCR6 antagonist project, dose response (AID 504712); assay type: functional
[14] = biological target: Mu-type opioid receptor (Homo sapiens, UniProt P35372); test: HTS Image-Based Screen for Agonists of the MOR Receptor. [Related pubchem assays (depositor defined):AID1777, AID1785, AID1786, AID2133]; assay type: functional;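 also: imaging of beta-arrestin GFP recruitment into spots after receptor activation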
[15] = biological target: T4, Kappa-type opioid receptor; assay type: functional; remark: listed apart in the source
[16] = biological target: T3, Beta-galactosidase; assay type: functional
[17] = biological target: Lysine-specific demethylase 4C (Homo sapiens, UniProt Q9H3R0); test: inhibition of JMJD2C H3K9me3 demethylation – biochemical, DELFIA europium, cherry-picked samples, dose response (AID 488835); assay type: functional
Sequence of Lysine-specific demethylase 4C (Q9H3R0 whole entry): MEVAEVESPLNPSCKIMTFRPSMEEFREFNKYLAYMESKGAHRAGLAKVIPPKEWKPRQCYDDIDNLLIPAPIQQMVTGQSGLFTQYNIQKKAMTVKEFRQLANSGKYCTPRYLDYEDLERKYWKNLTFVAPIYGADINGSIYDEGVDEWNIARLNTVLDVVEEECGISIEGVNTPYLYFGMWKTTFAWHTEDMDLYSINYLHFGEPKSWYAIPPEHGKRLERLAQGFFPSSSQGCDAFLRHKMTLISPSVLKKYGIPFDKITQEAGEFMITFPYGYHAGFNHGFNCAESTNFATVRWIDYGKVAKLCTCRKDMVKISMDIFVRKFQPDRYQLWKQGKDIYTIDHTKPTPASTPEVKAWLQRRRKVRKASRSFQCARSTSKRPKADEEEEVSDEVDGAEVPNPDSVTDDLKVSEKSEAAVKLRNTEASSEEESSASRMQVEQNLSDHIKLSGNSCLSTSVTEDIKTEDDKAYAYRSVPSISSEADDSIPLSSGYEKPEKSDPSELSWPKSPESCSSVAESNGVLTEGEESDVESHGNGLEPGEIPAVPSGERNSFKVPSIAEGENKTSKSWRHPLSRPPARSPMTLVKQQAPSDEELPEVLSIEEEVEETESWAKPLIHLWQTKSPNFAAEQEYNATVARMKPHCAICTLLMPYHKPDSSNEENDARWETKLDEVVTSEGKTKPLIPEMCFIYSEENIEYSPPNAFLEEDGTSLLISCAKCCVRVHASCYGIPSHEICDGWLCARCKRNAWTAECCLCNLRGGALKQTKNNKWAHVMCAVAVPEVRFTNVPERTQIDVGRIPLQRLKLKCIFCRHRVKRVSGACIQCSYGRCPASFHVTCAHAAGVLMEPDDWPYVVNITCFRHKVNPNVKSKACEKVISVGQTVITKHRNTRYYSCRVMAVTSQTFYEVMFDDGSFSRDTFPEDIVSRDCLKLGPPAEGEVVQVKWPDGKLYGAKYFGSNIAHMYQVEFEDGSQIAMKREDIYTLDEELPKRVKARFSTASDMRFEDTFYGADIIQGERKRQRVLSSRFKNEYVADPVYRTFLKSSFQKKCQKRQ

T3 sequence (Q8VNN2 whole entry): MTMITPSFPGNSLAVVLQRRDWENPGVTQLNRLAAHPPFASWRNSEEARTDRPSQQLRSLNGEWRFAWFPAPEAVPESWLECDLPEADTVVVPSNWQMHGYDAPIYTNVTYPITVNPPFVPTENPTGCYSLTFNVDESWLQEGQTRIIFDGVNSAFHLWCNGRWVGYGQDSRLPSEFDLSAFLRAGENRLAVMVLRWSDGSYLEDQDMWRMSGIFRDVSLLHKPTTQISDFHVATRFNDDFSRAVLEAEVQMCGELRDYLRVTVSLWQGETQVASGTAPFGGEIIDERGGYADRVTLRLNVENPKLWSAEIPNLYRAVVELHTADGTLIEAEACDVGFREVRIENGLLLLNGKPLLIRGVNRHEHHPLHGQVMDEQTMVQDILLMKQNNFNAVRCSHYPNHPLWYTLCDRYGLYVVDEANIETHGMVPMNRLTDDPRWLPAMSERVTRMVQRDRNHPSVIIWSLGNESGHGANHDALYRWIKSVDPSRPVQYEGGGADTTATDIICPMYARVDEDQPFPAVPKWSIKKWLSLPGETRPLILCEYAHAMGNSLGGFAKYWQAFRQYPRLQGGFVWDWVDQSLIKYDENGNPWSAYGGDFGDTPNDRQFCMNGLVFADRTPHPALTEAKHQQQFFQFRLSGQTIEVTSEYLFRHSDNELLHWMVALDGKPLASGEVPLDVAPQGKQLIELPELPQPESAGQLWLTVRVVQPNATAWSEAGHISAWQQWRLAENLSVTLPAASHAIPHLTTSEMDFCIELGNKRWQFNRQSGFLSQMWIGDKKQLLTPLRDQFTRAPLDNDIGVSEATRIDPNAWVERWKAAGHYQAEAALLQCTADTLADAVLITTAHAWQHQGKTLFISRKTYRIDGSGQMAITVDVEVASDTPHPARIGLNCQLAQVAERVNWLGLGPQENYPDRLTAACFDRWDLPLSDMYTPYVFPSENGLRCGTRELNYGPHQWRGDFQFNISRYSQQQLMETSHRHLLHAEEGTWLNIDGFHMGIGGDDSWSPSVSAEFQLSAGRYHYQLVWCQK
T4 sequence (P41145 whole entry): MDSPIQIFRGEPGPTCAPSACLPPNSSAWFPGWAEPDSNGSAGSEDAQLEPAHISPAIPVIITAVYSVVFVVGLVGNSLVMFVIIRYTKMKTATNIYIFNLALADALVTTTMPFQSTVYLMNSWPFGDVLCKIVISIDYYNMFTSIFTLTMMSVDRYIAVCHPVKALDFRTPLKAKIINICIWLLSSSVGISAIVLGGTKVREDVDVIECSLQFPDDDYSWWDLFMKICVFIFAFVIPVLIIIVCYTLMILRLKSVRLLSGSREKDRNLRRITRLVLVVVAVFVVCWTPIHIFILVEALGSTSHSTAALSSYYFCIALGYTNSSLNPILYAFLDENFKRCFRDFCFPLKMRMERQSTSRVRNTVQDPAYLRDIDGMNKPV
Sequence of Type-1 angiotensin II receptor (P30556 whole entry): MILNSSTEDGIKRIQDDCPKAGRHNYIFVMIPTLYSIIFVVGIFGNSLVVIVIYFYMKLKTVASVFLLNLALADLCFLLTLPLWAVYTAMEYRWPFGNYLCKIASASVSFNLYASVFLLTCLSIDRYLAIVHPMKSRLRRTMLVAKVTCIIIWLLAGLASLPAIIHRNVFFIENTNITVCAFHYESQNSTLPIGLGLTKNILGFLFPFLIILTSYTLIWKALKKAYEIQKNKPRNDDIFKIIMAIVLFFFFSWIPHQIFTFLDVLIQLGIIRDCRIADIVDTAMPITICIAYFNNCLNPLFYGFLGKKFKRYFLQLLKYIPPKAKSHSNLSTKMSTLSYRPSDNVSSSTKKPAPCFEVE
T5 sequence (P41143 whole entry): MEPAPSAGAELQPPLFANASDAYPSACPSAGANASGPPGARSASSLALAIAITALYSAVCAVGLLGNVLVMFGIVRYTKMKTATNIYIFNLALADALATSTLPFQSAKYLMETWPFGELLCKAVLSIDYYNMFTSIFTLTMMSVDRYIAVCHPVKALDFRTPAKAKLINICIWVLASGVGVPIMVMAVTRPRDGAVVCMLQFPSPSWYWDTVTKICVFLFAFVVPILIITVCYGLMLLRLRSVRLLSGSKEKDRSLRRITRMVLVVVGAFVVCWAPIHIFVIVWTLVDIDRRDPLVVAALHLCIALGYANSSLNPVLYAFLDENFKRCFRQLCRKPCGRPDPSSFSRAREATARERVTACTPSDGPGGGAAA
Sequence of Mu-type opioid receptor (P35372 whole entry): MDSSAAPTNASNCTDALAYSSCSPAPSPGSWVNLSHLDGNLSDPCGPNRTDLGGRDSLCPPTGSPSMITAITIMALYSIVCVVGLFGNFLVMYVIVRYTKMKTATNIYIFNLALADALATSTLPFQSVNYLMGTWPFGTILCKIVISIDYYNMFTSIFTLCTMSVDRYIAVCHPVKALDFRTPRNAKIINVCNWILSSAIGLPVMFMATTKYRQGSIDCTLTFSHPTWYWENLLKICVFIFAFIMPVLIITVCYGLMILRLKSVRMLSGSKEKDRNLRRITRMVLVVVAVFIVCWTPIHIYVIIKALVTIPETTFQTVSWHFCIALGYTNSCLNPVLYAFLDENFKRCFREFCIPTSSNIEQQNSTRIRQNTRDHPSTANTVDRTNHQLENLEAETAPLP

SMILES: COc1cc2c(cc1OC)-c1cc(Nc3cccc4ccccc34)nc(=O)n1CC2
- IC50 [1]: > 80 µM (inactive)
- IC50 [2]: > 80 µM (inactive)

SMILES: CC(/C=N/Nc1ccc2nncn2n1)=C\c1ccccc1
- EC50 [3]: > 120 µM (not active)
- EC50 [4]: > 71.5 µM (inactive)
- EC50 [5]: 20.7 µM (active)

SMILES: COc1cccc(N2CC(C)Cn3c2nc2c3c(=O)n(CCN3CCOCC3)c(=O)n2C)c1 (stereo unspecified)
- EC50 [6]: > 40 µM (inactive)
- IC50 [7]: > 40 µM (not active)

SMILES: O=C(O)c1cccc(NC(=S)NC(=O)c2cncc(Br)c2)c1
- EC50 [6]: > 40 µM (inactive)
- IC50 [7]: > 40 µM (not active)

SMILES: O=c1c2ccc(F)cc2nc(/C=C/c2cccnc2)n1Cc1ccccc1
- IC50 [1]: > 80 µM (inactive)
- IC50 [2]: > 80 µM (inactive)

SMILES: O=C(NC(=S)N1CCN(c2ccc(Cl)cc2[N+](=O)[O-])CC1)c1cccs1
- EC50 [8]: 2.08 µM (active)
- IC50 [9]: > 32 µM
- IC50 [10]: > 32 µM (inactive)
- EC50 [11]: > 32 µM (inactive)
- EC50 [12]: 4.3 µM (active)
- IC50 [13]: > 66.6 µM (inactive)
- EC50 [14]: > 32 µM (inactive)
- IC50 [15]: 12.3 µM (active)
- EC50 [16]: > 31.5 µM (inactive)

SMILES: O=C(NCCCNCCCNC(=O)c1ccc(/C=N/O)nc1)c1ccc(/C=N/O)nc1
- AC50 [17]: 18 µM (active)
